According to US9886545B2, “Interrogatory cell-based assays and uses thereof” (Berg LLC, priority 2011, dated 2018):

How the values were obtained:
[1] = target: FASN (Mus musculus, UniProt P19096); settings: Loftus et al 2000; cited from earlier work
[2] = test system: LDHA expression in HepG2 cells; test: Wet lab validation of LDHA expression in HepG2 cells; format: cell-based; settings: 50 uM or 100 uM CoQ10 for 24 or 48 hours
Experimental: Protein accession number P00338 is LDHA. Wet lab validation of proteomics data were performed for LDHA expression in HepG2 cells (see FIG. 20).

[3] = test system: Bcl2 in melanoma cell; test: Bcl2 level in melanoma cell in the presence of VEGF; format: cell-based
Source text: (§1) The term “Multidimensional Intracellular Molecule (MIM)”, is an isolated version or synthetically produced version of an endogenous molecule that is naturally produced by the body and/or is present in at least one cell of a human. A MIM is capable of entering a cell and the entry into the cell includes complete or partial entry into the cell as long as the biologically active portion of the molecule wholly enters the cell. MIMs are capable of inducing a signal transduction and/or gene expression mechanism within a cell. MIMs are multidimensional because the molecules have both a therapeutic and a carrier, e.g., drug delivery, effect. MIMs also are multidimensional because the molecules act one way in a disease state and a different way in a normal state. For example, in the case of CoQ-10, administration of CoQ-10 to a melanoma cell in the presence of VEGF leads to a decreased level of Bcl2 which, in turn, leads to a decreased oncogenic potential for the melanoma cell. In contrast, in a normal fibroblast, co-administration of CoQ-10 and VEFG has no effect on the levels of Bcl2.

[4] = test system: Bcl2 in normal fibroblast; test: Bcl2 level in normal fibroblast with VEGF co-administration; format: cell-based
Source text: as §1

[5] = test system: human mitochondrial energy metabolism genes; test: Transcriptional profiling of diabetic cardiomyocytes; format: cell-based; settings: diabetic cardiomyocytes treated with diabetic drug plus rescue molecule (T+R) vs untreated (UT)
Experimental: Human cardiomyocytes were subject to conditions simulating an diabetic environment experienced by the disease-relevant cells in vivo. Specifically, the cells were exposed to hyperglycemic conditions and hyperlipidemia conditions. The hyperglycemic condition was induced by culturing cells in media containing 22 mM glucose. The hyperlipidemia condition was induced by culturing the cells in media containing 1 mM L-carnitine, 0.7 mM Oleic acid and 0.7 mM Linoleic acid. […]
iProfiling of changes in total cellular protein expression by quantitative proteomics was performed for cell and media samples collected for each condition and with each “environmental perturbation”, i.e, diabetic drug treatment, Coenzyme Q10 treatment or both, using the techniques described above in the detailed description. […] Following data collection (Ct), the final fold change over control was determined using the δCt method as outlined in manufacturer's protocol. […] Functional assays such as Oxygen consumption rate OCR were measured by employing the Seahorse analyzer essentially as recommended by the manufacturer. OCR was recorded by the electrodes in a 7 μl chamber created with the cartridge pushing against the seahorse culture plate. […]

Sequence of FASN (P19096 whole entry): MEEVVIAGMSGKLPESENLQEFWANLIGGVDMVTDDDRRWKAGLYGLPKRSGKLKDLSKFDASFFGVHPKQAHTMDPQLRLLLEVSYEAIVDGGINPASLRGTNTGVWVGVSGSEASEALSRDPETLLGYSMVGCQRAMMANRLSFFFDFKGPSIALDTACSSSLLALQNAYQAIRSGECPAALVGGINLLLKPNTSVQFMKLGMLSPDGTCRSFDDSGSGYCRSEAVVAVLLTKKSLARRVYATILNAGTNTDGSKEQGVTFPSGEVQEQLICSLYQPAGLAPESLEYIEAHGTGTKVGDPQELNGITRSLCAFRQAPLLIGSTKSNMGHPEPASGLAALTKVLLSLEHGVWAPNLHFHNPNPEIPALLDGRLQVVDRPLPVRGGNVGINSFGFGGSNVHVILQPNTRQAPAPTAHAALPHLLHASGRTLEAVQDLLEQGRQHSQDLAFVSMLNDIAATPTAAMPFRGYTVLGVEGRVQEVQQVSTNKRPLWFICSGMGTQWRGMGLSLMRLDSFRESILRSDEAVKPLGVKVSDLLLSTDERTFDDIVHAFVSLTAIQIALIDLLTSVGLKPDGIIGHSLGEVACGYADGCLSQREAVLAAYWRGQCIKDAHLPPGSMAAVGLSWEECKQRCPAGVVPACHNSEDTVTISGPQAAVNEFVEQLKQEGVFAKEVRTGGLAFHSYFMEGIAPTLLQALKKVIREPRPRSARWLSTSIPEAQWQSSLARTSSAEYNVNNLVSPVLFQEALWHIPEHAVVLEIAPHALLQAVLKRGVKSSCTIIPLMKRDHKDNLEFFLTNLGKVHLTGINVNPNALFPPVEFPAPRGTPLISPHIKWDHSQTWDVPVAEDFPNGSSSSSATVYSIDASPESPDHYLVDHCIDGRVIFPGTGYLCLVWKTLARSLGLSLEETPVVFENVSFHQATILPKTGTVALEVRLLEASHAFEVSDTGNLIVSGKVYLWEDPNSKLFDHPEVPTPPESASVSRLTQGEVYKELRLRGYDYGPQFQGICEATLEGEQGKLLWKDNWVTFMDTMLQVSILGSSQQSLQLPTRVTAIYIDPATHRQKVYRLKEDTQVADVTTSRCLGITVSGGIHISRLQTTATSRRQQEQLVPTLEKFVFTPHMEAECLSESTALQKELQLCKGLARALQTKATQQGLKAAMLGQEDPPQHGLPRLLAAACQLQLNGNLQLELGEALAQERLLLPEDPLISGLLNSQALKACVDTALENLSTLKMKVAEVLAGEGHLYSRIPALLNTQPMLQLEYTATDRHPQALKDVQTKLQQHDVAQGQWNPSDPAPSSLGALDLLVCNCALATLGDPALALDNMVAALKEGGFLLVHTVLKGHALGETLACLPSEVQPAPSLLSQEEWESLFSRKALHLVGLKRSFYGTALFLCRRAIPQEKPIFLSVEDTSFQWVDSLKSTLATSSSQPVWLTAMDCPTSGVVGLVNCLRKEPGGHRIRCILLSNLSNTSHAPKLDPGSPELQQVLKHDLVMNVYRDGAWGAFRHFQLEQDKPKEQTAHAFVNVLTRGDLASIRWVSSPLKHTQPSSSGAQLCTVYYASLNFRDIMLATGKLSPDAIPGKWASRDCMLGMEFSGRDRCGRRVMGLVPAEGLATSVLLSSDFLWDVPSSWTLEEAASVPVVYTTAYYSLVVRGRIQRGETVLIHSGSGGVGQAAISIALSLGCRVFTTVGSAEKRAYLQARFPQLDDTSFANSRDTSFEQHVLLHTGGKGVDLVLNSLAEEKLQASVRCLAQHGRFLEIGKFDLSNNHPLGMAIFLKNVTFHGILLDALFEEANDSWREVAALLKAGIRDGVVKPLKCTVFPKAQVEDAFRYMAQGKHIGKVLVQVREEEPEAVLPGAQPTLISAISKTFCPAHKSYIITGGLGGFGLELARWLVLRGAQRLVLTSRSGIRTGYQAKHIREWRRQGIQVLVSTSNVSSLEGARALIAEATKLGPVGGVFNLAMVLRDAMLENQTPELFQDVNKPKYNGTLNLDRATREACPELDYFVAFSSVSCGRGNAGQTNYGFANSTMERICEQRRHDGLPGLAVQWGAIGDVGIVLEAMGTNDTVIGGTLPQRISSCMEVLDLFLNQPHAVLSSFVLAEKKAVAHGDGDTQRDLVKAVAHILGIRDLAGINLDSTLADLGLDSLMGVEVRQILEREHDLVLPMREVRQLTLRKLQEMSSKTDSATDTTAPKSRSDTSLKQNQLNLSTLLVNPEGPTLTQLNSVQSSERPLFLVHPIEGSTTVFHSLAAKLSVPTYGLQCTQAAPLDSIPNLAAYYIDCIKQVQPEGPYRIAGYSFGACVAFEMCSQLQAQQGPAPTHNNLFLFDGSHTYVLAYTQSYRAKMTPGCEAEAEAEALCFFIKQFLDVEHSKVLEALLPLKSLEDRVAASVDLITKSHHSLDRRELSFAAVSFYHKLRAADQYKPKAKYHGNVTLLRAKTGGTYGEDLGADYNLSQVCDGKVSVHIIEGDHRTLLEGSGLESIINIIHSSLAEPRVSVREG

SMILES	food intake [1]	weight loss [1]	LDHA expression levels [2]	level of Bcl2 [3]	levels of Bcl2 [4]	gene expression and transcription of mitochondrial energy metabolism genes, rescue [5]	gene expression and transcription of mitochondrial energy metabolism genes, rescue ([5]; listed as R)
C=C1C(=O)OC(CCCCCCCC)C1C(=O)O (stereo not drawn) [C75]	reducing	effectuate weight loss	–	–	–	–	–
C/C=C/C/C=C/CCC(=O)[C@H]1O[C@H]1C(N)=O [Cerulenin]	reducing	effectuate weight loss	–	–	–	–	–
COC1=C(OC)C(=O)C(C/C=C(\C)CC/C=C(\C)CC/C=C(\C)CC/C=C(\C)CC/C=C(\C)CC/C=C(\C)CC/C=C(\C)CC/C=C(\C)CC/C=C(\C)CCC=C(C)C)=C(C)C1=O [Coenzyme Q10]	–	–	decreased	decreased	no effect	normalize	normalizes
